Laboratory results published in patent US7879795B2, “Enhancement of tigecycline potency using efflux pump inhibitors” (Mpex Pharmaceuticals, Inc., priority 2004, dated 2011).
Like-named read-outs stand apart in the source and are kept apart here. One block for each compound: values may come before it.

What was measured:
[1] = tested on: Enterobacter aerogenes 19; assay: Antibiotic MIC with fixed concentration of compound 21, Enterobacter aerogenes 19; format: cell-based
Citrobacter freundii 13 = assay: Antibiotic MIC with fixed concentration of compound 21, Citrobacter freundii 13; format: cell-based
Protocol: (§1) To further characterize the clinical potential of tigecycline/EPI combinations, the microbiological activity of tigecycline in combination with compound 21 was investigated using clinical isolates of P. aeruginosa and other gram-negative bacteria. In several experiments, described below, the impact of a fixed concentration of compound 21 (2.5 μg/ml) on susceptibility to tigecycline was determined.
(§2) The impact of compound 21 on the activity of tigecycline against representative members of Enterobacteriacaea was also tested.

Enterobacter cloacae 25 = assay: Antibiotic MIC with fixed concentration of compound 21, Enterobacter cloacae 25; format: cell-based
Klebsiella pneumonia 73 = assay: Antibiotic MIC with fixed concentration of compound 21, Klebsiella pneumonia 73; format: cell-based
Protocol: as §1, §2

Klebsiella pneumonia 79 = assay: Antibiotic MIC with fixed concentration of compound 21, Klebsiella pneumonia 79; format: cell-based
Protocol: as §1, §2

PAM1723 = settings: for stability in rat serum: summary of Table 4, in words
Protocol: Stability in rat and human serum was also evaluated using a bioassay. 320 μg/ml of the test compound was treated with 50% serum for 4 hours.
Bioassays as described in Example 62 and Example 65 were used to evaluate the stability of various compounds in serum and rabbit kidney homogenates.

[2] = Rat serum pharmacokinetics after 2-hour IV infusion; format: in vivo
Protocol: Rat serum pharmacokinetics of compounds 1, 3, 7, and 21 was evaluated after 2-hour IV infusion of 1 mg/ml EPI solution in 0.9% saline. Total infused dose was 10 mg/kg. FIG. 12 depicts the serum concentrations as a function of time. A two-compartment model was used to fit the data and calculate PK parameters.

[3] = Tissue levels after 2-hour IV infusion in rats; format: in vivo, rat; settings: for concentration at 6 h: 4 h after end of 2-hour IV infusion; for concentration at 6 h / concentration at 2 h: 10 mg/kg; for 2 h/4 h Ratio: Table 7, 2 h and 6 h; for concentration at 2 h: end of 2-hour IV infusion
Protocol: Levels of EPIs in various tissues were evaluated after 2-hour IV infusion in rats. The rats received 10 mg/kg IV infusion through FVC. Animals were divided into 2 groups: group 1 was sacrificed immediately after the end of infusion and group 2, 2 h or 4 h after the end of infusion. Tissues from each animal were collected, homogenized and compounds were extracted. Tissues were mixed with saline at 1:1 ratio (v/w) in 12×75 mm polypropylene round bottom tubes. The mixtures were homogenized with a Polytron homogenizer (on ice, 3×10-15 seconds with 30 seconds intervals at the setting of 7). 50 μl of homogenized tissue were immediately transferred to an Eppendorf tube and 2-volumes of 4% TCA were added. After vortexing for 30 seconds, the tubes were centrifuged in a microfuge at top speed (13.2 k rpm) for 5 minutes. The supernatant was collected, and 45 μl of the supernatant was transferred to a glass LC/MS/MS vial (Kimble, 11 mm, 1.5 ml) for analysis, which allowed determination of tissue levels of EPIs at the end of the infusion and 2 h or 4 h later.

[4] = Tissue levels in rat six-hour after 8.4 mg/kg IV bolus; format: in vivo; settings: rat kidney, liver and lung; 8.4 mg/kg IV bolus; in words
Protocol: Tissue levels of compounds 1, 2, 3 and 4 were evaluated in kidney, liver and lung six-hour after 8.4 mg/kg IV bolus administration. FIG. 13 depicts the levels as a function of time.
Compound 67, which is the expected metabolite of proteolytic intracellular degradation of compound 3, was detected in rat tissues after IV infusion, confirming the tissue-specific degradation of compound 3 (Tables 9A, B).

[5] = tested on: P. aeruginosa, PAM1723, overexpressing the MexAB-OprM efflux pump; assay: Levofloxacin potentiation checkerboard assay (broth microdilution); format: cell-based
Protocol: Stock solution was stored at −80° C.
The checkerboard assay was performed in microtiter plates. […] EPIs were diluted in the y axis, each row containing an equal concentration of an EPI. The result of these manipulations was that each well of the microtiter plate contains a unique combination of concentrations of the two agents. The assay was performed in MHB with a final bacterial inoculum of 5×10^5 CFU/ml (from an early-log phase culture). Microtiter plates were incubated during 20 h at 35° C. and were read using a microtiterplate reader (Molecular Devices) at 650 nm as well as visual observation using a microtiter plate-reading mirror.

[6] = In vitro stability in rat serum and tissue homogenates (LC/MS/MS); format: in vitro ADME; settings: in words
Protocol: To test the stability of the compounds in vitro, samples were prepared and analyzed by LC/MS/MS according to the following procedure.
Homogenization: A chunk of fresh tissue was weighed and mixed with saline at 1:1 ratio (w/v) in a 12×75 mm polypropylene round bottom tube. The mixture was homogenized with a Polytron homogenizer (on ice, 3×10 seconds with 10 second intervals at the setting of 7).
Incubation and TCA-precipitation: An appropriate amount of a tissue homogenate was pre-warmed at 37° C. for 2 minutes in an Eppendorf tube. The compound to be tested was added to the tube to a final concentration of 2 μg/ml, mixed, and a 60 μl aliquot was immediately taken (as 0 hour sample) and mixed with 120 μl of 4% TCA (trichloroacetic acid) in an Eppendorf tube. The temperature of the tube containing the rest of the tissue sample was returned to 37° C. for incubation. Later, samples were taken as scheduled and mixed with TCA as described above. Plasma and lavage samples were directly incubated with the compounds without addition of saline and homogenization.
LC/MS/MS sample vial preparation: TCA-precipitated sample tubes were vortexed for 30 seconds, centrifuged in a microfuge at top speed (13.2 k rpm) for 5 minutes. The supernatant was collected. The pH was neutralized to about 3.5 with ammonium acetate buffer. The sample (45 μl) was transferred to a glass LC/MS/MS vial (Kimble, 11 mm, 1.5 ml) and 5 μl of an internal standard was added to a final concentration of 500 ng/ml. LC/MS/MS analysis was performed in Chemistry Department of San Diego State University.
LC/MS/MS protocol: Thermo-Finnigan TSQ Quantum triple sector mass spectrometer with electrospray (ESI) ionization was used to analyze the samples. The operation conditions were: Mobile phase of pH 3.00 water/formic acid: acetonitrile-methanol (45%:5%:50% by volume); Thermo-Keystone Betabasic C-18 column (2.1 mm×50 mm) operated at 0.100 mL/min.
Many proteases responsible for degrading EPI compounds are located in […]. Lysozymes typically have an acidic pH (about 4.8-5), whereas the pH in tissue homogenates that were prepared was higher (kidney, pH 6.8; liver, pH 6.6; and lung, pH 7.5). To test the effect of tissue homogenates closer to physiological conditions, the pH was lowered to about 6 by adding acetic acid to the tissue homogenates and compound stability was tested. FIG. 2 depicts the stability of compounds 1 and 3 at different pH. […] The pH-dependent degradation of compound 3 was especially evident in kidney homogenates.
FIG. 4 is a bar graph depicting the stability of compound 3 in the supernatant and pellet of kidney tissue homogenates.

[7] = tested on: strain PAM1723 of P. aeruginosa; format: in vitro ADME
Protocol: Stability of compounds was also evaluated using a bioassay. The test compound at 320 μg/ml was treated with rabbit kidney supernatant for 0, 0.5, 1 and 2 hours.

Azi (MIC) ([1]; azithromycin alone): 32 µg/mL
Azi (MIC) (Citrobacter freundii 13; azithromycin alone): 8 µg/mL
Azi (MIC) (Enterobacter cloacae 25; azithromycin alone): 16 µg/mL
Azi (MIC) (Klebsiella pneumonia 73; azithromycin alone): 16 µg/mL
Azi (MIC) (Klebsiella pneumonia 79; azithromycin alone): 64 µg/mL
Compound: CC[C@H]1OC(=O)[C@H](C)[C@@H](O[C@H]2C[C@@](C)(OC)[C@@H](O)[C@H](C)O2)[C@H](C)[C@@H](O[C@@H]2O[C@H](C)C[C@H](N(C)C)[C@H]2O)[C@](C)(O)C[C@@H](C)CN(C)[C@H](C)[C@@H](O)[C@]1(C)O [Azithromycin, reference compound]

Compound: NCCC[C@H](N)C(=O)N[C@H](CCc1ccccc1)C(=O)Nc1ncc(Cl)cc1Cl [Compound 36, 2-(S),5-Diamino-pentanoic acid [1-(R)-(3,5-dichloro-pyridin-2-ylcarbamoyl)-3-phenyl-propyl]amide]
stability in rat serum (PAM1723): unstable in rat serum

Levo (MIC) ([1]; levofloxacin alone): 128 µg/mL
Levo (MIC) (Citrobacter freundii 13; levofloxacin alone): 64 µg/mL
Levo (MIC) (Enterobacter cloacae 25; levofloxacin alone): 2 µg/mL
Levo (MIC) (Klebsiella pneumonia 73; levofloxacin alone): 64 µg/mL
Levo (MIC) (Klebsiella pneumonia 79; levofloxacin alone): 64 µg/mL
Compound: C[C@H]1COc2c(N3CCN(C)CC3)c(F)cc3c(=O)c(C(=O)O)cn1c23 [Levofloxacin, reference compound]

Compound: NCCC[C@H](N)C(=O)N[C@H](CCc1ccccc1)C(=O)Nc1ccc2cccnc2c1 [Compound 28, 2-(S),5-Diamino-pentanoic acid [3-phenyl-1-(R)-(quinolin-7-ylcarbamoyl)-propyl]-amide]
stability in rat serum (PAM1723): unstable in rat serum

Compound: NCCC[C@H](N)C(=O)N[C@H](CCc1ccccc1)C(=O)Nc1cc2ccccc2nn1 [Compound 39, 2-(S),5-Diamino-pentanoic acid [1-(R)-(cinnolin-3-ylcarbamoyl)-3-phenyl-propyl]-amide]
stability in rat serum (PAM1723): unstable in rat serum

Compound: NCCC[C@H](N)C(=O)N[C@H](CCc1ccccc1)C(=O)Nc1ccc2ncccc2c1 [Compound 7, 2-(S),5-Diamino-pentanoic acid [3-phenyl-1-(R)-(quinolin-6-ylcarbamoyl)-propyl]-amide]
serum PK profile after 2-hour IV infusion ([2]; 10 mg/kg, in words): best serum PK profile
clearance ([2]; serum, 2-hour IV infusion, total dose 10 mg/kg, two-compartment model): 6.5 mL/min/kg
concentration at 6 h ([3]; rat kidney): 960 ng/mL
2 h/4 h Ratio ([3]; rat kidney): 57.37
concentration at 2 h ([3]; rat kidney): 55400 ng/mL
concentration at 6 h ([3]; rat liver): 270 ng/mL
2 h/4 h Ratio ([3]; rat liver): 29.85
concentration at 2 h ([3]; rat liver): 7960 ng/mL
concentration at 6 h ([3]; rat lung): 3170 ng/mL
2 h/4 h Ratio ([3]; rat lung): 4.11
concentration at 2 h ([3]; rat lung): 13000 ng/mL
tissue levels and clearance from tissues after 2-hour IV infusion ([3]; rat, in words): cleared from tissues relatively fast

Compound: NCCC[C@H](N)C(=O)N[C@@H](CCc1ccc(F)cc1)C(=O)Nc1cnc2ccccc2c1 [Compound 9, 2-(S),5-Diamino-pentanoic acid [3-(4-fluoro-phenyl)-1-(S)-(quinolin-3-ylcarbamoyl)-propyl]amide]
stability in rat serum (PAM1723): unstable in rat serum

Compound: L-phenylalanine-L-ornithine-α-naphtylamide [MC-207110, reference compound]
EPI MPC8 after 4 hours at 37° C., Frozen Rat serum (PAM1723; Table 3, 50% rat serum): >80

Compound: NCCC[C@@H](N)C(=O)N[C@@H](CCc1ccccc1)C(=O)Nc1cnc2ccccc2c1 [Compound 4, 2-(R),5-Diamino-pentanoic acid [3-phenyl-1-(S)-(quinolin-3-ylcarbamoyl)-propyl]-amide]
tissue levels at 6 hours after IV injection [4]: relatively high levels
Antibiotic (levofloxacin) MIC in the presence of EPI ([5]; EPI 0 μg/ml (levofloxacin alone)): 2 µg/mL
Antibiotic (levofloxacin) MIC in the presence of EPI ([5]; EPI 1.25 μg/ml): 2 µg/mL
Antibiotic (levofloxacin) MIC in the presence of EPI ([5]; EPI 5 μg/ml): 2 µg/mL
Antibiotic (levofloxacin) MIC in the presence of EPI ([5]; EPI 10 μg/ml): 0.5 µg/mL
Antibiotic (levofloxacin) MIC in the presence of EPI ([5]; EPI 20 μg/ml): 0.06 µg/mL
Antibiotic (levofloxacin) MIC in the presence of EPI ([5]; EPI 40 μg/ml): 0.06 µg/mL
Antibiotic (levofloxacin) MIC in the presence of EPI ([5]; EPI 80 μg/ml): 0.03 µg/mL
Antibiotic (levofloxacin) MIC in the presence of EPI ([5]; EPI […]): 2 µg/mL
MPC8 ([5]; EPI concentration necessary to increase susceptibility to levofloxacin eight-fold): 20 µg/mL
stability in supernatant of rat kidney tissue homogenates [6]: neither compound 1 nor compound 4 show any instability

Compound: NCCC[C@H](N)C(=O)N[C@H](CCc1ccccc1)C(=O)Nc1cnc2ccccc2n1 [Compound 19, 2-(S),5-Diamino-pentanoic acid [3-phenyl-1-(R)-(quinoxalin-2-ylcarbamoyl)-propyl]-amide]
stability in rat serum (PAM1723): unstable in rat serum

Compound: NCCC[C@H](N)C(=O)N[C@H](CCc1ccccc1)C(=O)Nc1cccc(-c2ccccc2)c1 [Compound 26]
EPI MPC8 after incubation (h) with rabbit kidney supernatant at 37° C. ([7]; 0 h): 80 µg/mL
EPI MPC8 after incubation (h) with rabbit kidney supernatant at 37° C. ([7]; 0.5 h): >80 µg/mL
EPI MPC8 after incubation (h) with rabbit kidney supernatant at 37° C. ([7]; 1 h): >80 µg/mL
EPI MPC8 after incubation (h) with rabbit kidney supernatant at 37° C. ([7]; 2 h): >80 µg/mL
EPI MPC8, Saline (2 hours) ([7]; saline control of rabbit kidney supernatant bioassay, 37° C.): 2.5 µg/mL
EPI MPC8 after 4 hours at 37° C., Frosen Human serum (PAM1723; Table 4, human serum): 2.5 µg/mL
EPI MPC8 after 4 hours at 37° C., Frozen Rat serum (PAM1723; Table 4, rat serum): 2.5 µg/mL
EPI MPC8 after 4 hours at 37° C., Saline (PAM1723; Table 4, saline): 2.5 µg/mL

Compound: CN(C(=O)[C@@H](CCc1ccccc1)NC(=O)[C@@H](N)CCCN)c1cnc2ccccc2c1 [Compound 18, 2-(S),5-Diamino-pentanoic acid [1-(R)-(methyl-quinolin-3-yl-carbamoyl)-3-phenyl-propyl]amide]
stability in rat serum (PAM1723): unstable in rat serum
